Assay results published in patent US7288555B2 (priority 2001, dated 2007).

What was measured:
[1] = tested on: vine downy mildew (Plasmopara viticola); details: in vivo
[2] = tested on: potato blight (Phytophthora infestans); format: in vivo; details: Solanum tuberosum Bintje, infection 48 h after treatment, read after 6 days, 3 repeats, confidence interval in brackets; for ED50 (confidence interval): effective dose providing 50% control; for ED70 (confidence interval): effective dose providing 70% control; for ED90 (confidence interval): effective dose providing 90% control

SMILES	ED50 (confidence interval) [1]	ED70 (confidence interval) [1]	ED50 (confidence interval) [2]	ED70 (confidence interval) [2]	ED90 (confidence interval) [2]
O=C(NCc1ncc(C(F)(F)F)cc1Cl)c1c(Cl)cccc1Cl [Compound A, 2,6-dichloro-N-{[3-chloro-5-(trifluoromethyl)-2-pyridinyl]methyl}benzamide]	6.6 (4-10.9) mg/l	12.5 (8-19.6) mg/l	19.9 (12-33) mg/l	43.5 (24.5-77.2) mg/l	151.2 (61.5-371.8) mg/l
Cc1ccc(C(C)NC(=O)[C@@H](NC(=O)OC(C)C)C(C)C)cc1 (stereo partly shown) [Compound B, iprovalicarb]	7.3 (4.9-11) mg/l	17.5 (11.8-25.9) mg/l	27.8 (18.3-42.2) mg/l	69.3 (43.7-109.9) mg/l	296.6 (136.2-646) mg/l
